According to US20220054412A1, “TOPICAL FORMULATION AND METHODS FOR […]” (priority 2020, published 2022):

Test: Use of the topical neuropathy relief formulation by patients (example cases)
Type: in vivo, human
Conditions: Patient, severe debilitating neuropathy for six years; medications tried before the formulation; high doses of gabapentin
Text: The neuropathy relief formulation is applied in an amount sufficient to cover the affected area of clean dry skin. The neuropathy relief formulation is rubbed into the affected area until no cream remains visible on the surface. The formulation can be applied one, two, three or four times per day as needed for relief of symptoms.
The following example cases are from a few of the individuals who have been successfully treated with the claimed formulation

| SMILES | outcome of earlier medications for neuropathy |
| --- | --- |
| NCC1(CC(=O)O)CCCCC1 [gabapentin] | unsuccessful |
| CCC(=O)C(CC(C)N(C)C)(c1ccccc1)c1ccccc1 (centres unmarked) [methadone] | unsuccessful |
